Values quoted from earlier work in patent US20150031737A1, “STABILIZED CONTROLLED-RELEASE PHARMACEUTICAL COMPOSITION COMPRISING GLICLAZIDE” (RANBAXY LABORATORIES LIMITED, priority 2012, published 2015).

- pKa: about 5.8
Compound: Cc1ccc(S(=O)(=O)NC(=O)NN2CC3CCCC3C2)cc1 (stereo not shown) [Gliclazide]
